Assays:
Gprc6a−/− myotubes [1] = experiment: cAMP accumulation in myotubes; type: cell-based, mouse; details: Ocn 10 ng/ml
Experimental: (§1) FIG. 25. Osteocalcin signaling in myofibers is necessary for muscle function during exercise. (A) Serum total osteocalcin (Ocn) and insulin (Ins) levels measured in mice at rest or after a single bout of exercise (40 min, 30 cm/s running on a treadmill) (n=7 per group). (B) Serum uncarboxylated (uncarb)-Ocn levels measured in mice at rest and 0, 1, 2 and 4 hours after a single bout of exercise (40 min, 30 cm/s running on a treadmill) (n=7 per group). (C) Serum CTX levels in mice at rest and after a single bout of exercise (n=7 per group). (D) Performance during endurance exercise of 3 month-old female Ocn-deficient and WT littermates (n=8-10 per group). (E) Performance during endurance exercise of 3 month-old Ocn f/f and OcnOsb−/− littermates (n=3-5 per group). (F) Performance during endurance exercise of 3 month-old female Gprc6a-deficient and WT littermates (n=8-10 per group). (G) Gprc6a expression in various tissues. (H) Gprc6a expression in EDL and soleus muscles (n=3). (I) In situ hybridization analysis of Gprc6a expression in soleus muscle. (J) Gprc6a expression in WT and Ocn−/− muscles (n=6 per group). […]
(§2) Serum osteocalcin, PINP, CTX, and insulin levels were measured using ELISA assays. Blood glucose level was measured using an Accu-Check glucometer. Urine 3-MHT was measured as previously described (Aranibar et al., 2011, Anal. Biochem. 410:84-91). […]

WT myotubes [2] = experiment: cAMP accumulation in myotubes; type: cell-based, mouse; details: Ocn 10 ng/ml
Experimental: as §1, §2

WT myotubes [3] = experiment: Gene expression (qPCR) in myotubes treated with Ocn; type: cell-based, mouse
Experimental: FIG. 28. Osteocalcin signaling in myofibers favors uptake and oxidation of fatty acids. (A-B) Acylcarnitine levels in muscles and plasma of Gprc6af/f and Gprc6aMck−/− mice, at rest and after a single bout of exercise (n=4-6 per group). (C) OCR in myofibers cultured in KHR buffer containing 3 mM oleic acid. (D) ATP accumulations in muscles of Gprc6af/f and Gprc6aMck−/− mice after a single bout of exercise (n=6 per group). (E) Western blot analysis of HSL phosphorylation (Ser563) in muscles of Gprc6af/f and Gprc6aMck−/− mice after a single bout of exercise. (F-G) Cd36, Fatp1 and Cpt1b expression in WT and Gprc6a−/− myotubes or WT myotubes treated with Ocn (10 ng/ml). (H) Fatp1 expression in muscles of Gprc6af/f; Gprc6aMck−/− and Ocn+/−; Gprc6aMck+/− mice, at rest and after a single bout of exercise (n=4-6 per group). (I) Western blot analysis of FATP1 in muscle of Gprc6af/f and Gprc6aMck−/− mice after exercise. (J) Cd36, Fatp1 and Cpt1b expression in muscles of Creb f/f and CrebMck−/− mice after a single bout of exercise. (K) Western blot analysis of CREB phosphorylation (Ser133) in muscles of Gprc6af/f and Gprc6aMck−/− mice after a single bout of exercise. (L) Performance during endurance exercise of 3 month-old Gprc6aMck+/−; CrebMck+/−, CrebMck+/− and control mice (n=8-13 per group).
Serum osteocalcin, PINP, CTX, and insulin levels were measured using ELISA assays. Blood glucose level was measured using an Accu-Check glucometer. Urine 3-MHT was measured as previously described (Aranibar et al., 2011, Anal. Biochem. 410:84-91). Determination of cAMP accumulation was performed using a commercial kit (R&D). For gene expression, 1 μg of total RNA was reverse transcribed into cDNA. qPCR analyses were performed using a SYBER green master mix (Applied Biosciences) and a CFX-Connect real time PCR (Bio-Rad). Relative expression levels of each gene were normalized to that of Hprt or Gapdh. For in situ hybridization, muscle was frozen in liquid N2-cooled methylbutane. Samples were sectioned at 10 μm using a cryostat. […]

Gprc6a−/− myotubes [4] = experiment: as above; type: cell-based, mouse
Experimental: Serum osteocalcin, PINP, CTX, and insulin levels were measured using ELISA assays. Blood glucose level was measured using an Accu-Check glucometer. Urine 3-MHT was measured as previously described (Aranibar et al., 2011, Anal. Biochem. 410:84-91). Determination of cAMP accumulation was performed using a commercial kit (R&D). For gene expression, 1 μg of total RNA was reverse transcribed into cDNA. qPCR analyses were performed using a SYBER green master mix (Applied Biosciences) and a CFX-Connect real time PCR (Bio-Rad). Relative expression levels of each gene were normalized to that of Hprt or Gapdh. For in situ hybridization, muscle was frozen in liquid N2-cooled methylbutane. Samples were sectioned at 10 μm using a cryostat. In situ hybridization was performed with a DIG-labeled riboprobe as previously described (Oury et al., 2011, Cell 144:796-809).
Culture of skeletal muscle myoblasts from 7 day-old mice was performed as described (Gharaibeh et al., 2008, Nature Protocols 3:1501-1509). Myoblasts were differentiated into myotubes for 3-4 days in a medium containing 5% horse serum. Muscle fibers were isolated from flexor digitorum brevis muscle. Muscles were dissected with DMEM 2% collagenase for 2 hours at 37° C., in a 5% CO2 incubator. Muscle fibers were disaggregated from the tissue using a wide bore pipet and plated in matrigel-coated plates at approximately 50% confluence. […]

Osteocalcin−/− mice = experiment: Bronchoconstriction of Osteocalcin−/− mice, intracerebroventricular infusion; type: in vivo, mouse; details: intracerebroventricular infusions in Osteocalcin−/− mice

In the case of “uncarboxylated osteocalcin: Recombinant uncarboxylated mouse osteocalcin, bacterially produced, purified on glutathione beads and cleaved from the GST subunit by thrombin (YLGASVPSPDPLEPTREQCELNPACDELSDQYGLKTAYKRIYGITI)”, the cAMP production (Gprc6a−/− myotubes [1]) is reported as “did not increase”, the cAMP production (WT myotubes [2]) is reported as “increase” and the “expression of Il6” value (WT myotubes [3]) is reported as “increased”. For the same substance, the “expression of Cpt1b” value (WT myotubes [3]; Ocn 10 ng/ml) was “increased”, the “expression of Fatp1” value (WT myotubes [3]; Ocn 10 ng/ml) was “increased” and the “expression of Il6” value (Gprc6a−/− myotubes [4]) was “not”. For the same substance, the bronchoconstriction (Osteocalcin−/− mice) was “do not correct”.

Source: US11191811B2, “Osteocalcin as a treatment for frailty associated with aging” (THE TRUSTEES OF COLUMBIA UNIVERSITY IN THE CITY OF NEW YORK, priority 2014, dated 2021)
